In US20050256085A1, “Fungicidal mixtures” (priority 2002, published 2005):
Where two headings read alike, the source gives them in different places.

Key:
Phytophthora infestans = type: in vivo; settings: tomato leaves, infected next day, assessed after 6 days
Plasmopara viticola = assay: Persistency against Peronospora of grapevines caused by Plasmopara viticola; type: in vivo; settings: grapevine leaves, inoculated 3 days after spraying

N#Cc1sc2c(=O)c3ccccc3c(=O)c=2sc1C#N [II, dithianon]
Efficacy in % of the untreated control (Phytophthora infestans; 1.9 ppm in the spray liquor): 0% | Efficacy in % of the untreated control (Phytophthora infestans; 3.75 ppm in the spray liquor): 0% | Efficacy in % of the untreated control (Phytophthora infestans; 7.5 ppm in the spray liquor): 0% | Efficacy in % of the untreated control (Plasmopara viticola; 1.9 ppm in the spray liquor): 48% | Efficacy in % of the untreated control (Plasmopara viticola; 3.75 ppm in the spray liquor): 58%

CC(C)OC(=O)N[C@H](C(=O)N[C@H](C)c1nc2ccc(F)cc2s1)C(C)C [Ia]
Efficacy in % of the untreated control (Phytophthora infestans; 0.19 ppm in the spray liquor): 56% | Efficacy in % of the untreated control (Phytophthora infestans; 0.375 ppm in the spray liquor): 67% | Efficacy in % of the untreated control (Phytophthora infestans; 0.75 ppm in the spray liquor): 78% | Efficacy in % of the untreated control (Phytophthora infestans; 1.5 ppm in the spray liquor): 83% | Efficacy in % of the untreated control (Phytophthora infestans; 3 ppm in the spray liquor): 89% | Efficacy in % of the untreated control (Plasmopara viticola; 0.19 ppm in the spray liquor): 48% | Efficacy in % of the untreated control (Plasmopara viticola; 0.375 ppm in the spray liquor): 58% | Efficacy in % of the untreated control (Plasmopara viticola; 1.5 ppm in the spray liquor): 79% | Efficacy in % of the untreated control (Plasmopara viticola; 3 ppm in the spray liquor): 84%
